A short description of data set [1]: Solubility in FaSSIF (pH 6.5) and FeSSIF (pH 5.0) buffer solutions. Format: physicochemical. Conditions: for 24-hour solubility in buffer solutions with different pH values pH6.5: FaSSIF (pH 6.5); for 24-hour solubility in buffer solutions with different pH values pH6.5 / 24-hour solubility in buffer solutions with different pH values pH5.0: 37 °C, shaken 24 h; for 24-hour solubility in buffer solutions with different pH values pH5.0: FeSSIF (pH 5.0); for solubility compared with the compound of formula (I): test solutions at pH 5.0 and pH 6.5. The method, then: Test substances: the crystal forms I, II, III, and IV of the methanesulfonate of the compound of formula (I).
• 1) 0.42 g of NaOH, 3.44 g of anhydrous NaH2PO4, and 6.19 g of NaCl were dissolved in about 0.9 L of pure water; • 2) the pH was adjusted to 6.5 using 1 N NaOH or 1 N HCl, and the buffer solution was supplemented to the volume of 1 L with pure water at room temperature; • 3) 2.24 g of FaSSIF powder was added to about 0.5 L of the buffer solution, and the mixture was stirred until the powder was completely dissolved; the resulting solution was supplemented to the volume of 1 L with the buffer solution at room temperature, and after being left to stand for 2 h, it was ready for use.
• 1) 4.04 g of NaOH, 8.65 g of glacial acetic acid, and 11.87 g of NaCl were dissolved in about 0.9 L of pure water; • 2) the pH was adjusted to 5.0 using 1 N NaOH or 1 N HCl, and the buffer solution was supplemented to the volume of 1 L with pure water at room temperature; • 3) 11.2 g of FeSSIF powder was added to about 0.5 L of the buffer solution, and the mixture was stirred until the powder was completely dissolved; the resulting solution was supplemented to the volume of 1 L with the buffer solution at room temperature, and after being left to stand for 2 h, it was ready for use.
An appropriate amount of each test substance was placed into separate 10 mL PE tubes, and FaSSIF (pH 6.5) buffer solution and FeSSIF (pH 5.0) buffer solution, each 10 mL, were added into the tubes, respectively. The tubes were then placed in a constant temperature water bath shaker and shaken at 37 °C for 24 h. After 24 h, samples were collected and centrifuged. The supernatants were diluted, and the solubility of the supernatants was measured.

A short description of data set [2]: PK evaluation of crystal forms in rats. Format: in vivo. Conditions: SD rats, PO 60 mg/kg. The method, then: The experimental crystal forms I and II of the methanesulfonate of the compound of formula (I) were each prepared into a suspension solution with 0.5% HPMC. The compound solutions were intragastrically administered to SD rats at a dose of 60 mg/kg. Blood samples were collected at time points of 15 min, 30 min, 1 h, 2 h, 4 h, 6 h, 8 h, 24 h, 48 h, 72 h, and 96 h after administration.
The animals were fixed, with tails warmed in a water bath 10 min before each sampling time point. About 100 µL of blood was collected via the tail vein, and the blood samples were collected in anticoagulation tubes containing EDTA-K2. The blood samples were then centrifuged at 8,000 rpm for 6 min at 4 °C to give plasma samples. The plasma samples were prepared within 30 min after blood collection. The plasma samples were stored in a refrigerator at -80 °C before the test.
The sample to be tested was taken out from the -80 °C refrigerator, naturally thawed at room temperature, and vortexed for 5 min. 20 µL of plasma sample was precisely pipetted to a 1.5 mL centrifuge tube, and 200 µL of internal standard working solution (a solution of tolbutamide in methanol, 100 ng/mL) was added. The resulting mixture was thoroughly mixed, vortexed for 5 min, and centrifuged at 12,000 rpm for 5 min. 50 µL of supernatant was precisely pipetted to a 96-well plate pre-loaded with 150 µL of water per well, and the resulting mixture was vortexed for 5 min and then used for LC-MS/MS analysis.
The concentrations of the test samples were calculated by Analyst 1.6.3 from AB Sciex. Parameters such as mean, standard deviation, and coefficient of variation (excluding those output directly by Analyst 1.6.3) were calculated by Microsoft Excel. PK parameters were calculated by Pharsight Phoenix 6.1 software NCA (Tmax was in median).

Data set [3] is described as follows: Stability test under influencing factors (high temperature, high humidity, illumination). Conditions: for changes in the appearance and purity: left to stand under conditions of the influencing factors for 30 days. Format: physicochemical. The protocol:
Test substances: the crystal forms I, II, III, and IV of the methanesulfonate of the compound of formula (I) of the present disclosure.
Methodology: Appropriate amounts of samples of the crystal forms I, II, III, and IV of the methanesulfonate of the compound of formula (I) were separately left to stand open under the conditions of a high temperature (60 °C), a high humidity (RH 92.5%), and illumination (4500±500 Lux); sampling was performed on days 5, 10, and 30 to investigate changes in the appearance, purity, and crystal form of the samples.

Setting [4] is: Left to stand open at 60 °C for 5 days.
The mark [5] stands for this setting: Left to stand open at 60 °C for 10 days.
The mark [6] stands for this setting: Left to stand open at 60 °C for 30 days.
Setting [7] is: Left to stand open at RH 92.5% for 5 days.
[8] abbreviates: Left to stand open at RH 92.5% for 10 days.
The mark [9] stands for this setting: Left to stand open at RH 92.5% for 30 days.
Where [10] appears, read: Left to stand open under illumination (4500±500 Lux) for 5 days.
Setting [11] is: Left to stand open under illumination (4500±500 Lux) for 10 days.
Setting [12] is: Left to stand open under illumination (4500±500 Lux) for 30 days.

What is called Cmax is the highest concentration seen after dosing. Usually Tmax stands for the time from dosing to the highest level.

Take `COc1cc2nccc(Oc3ccc(NC(=O)c4nn(C(C)C)cc(-c5ccc(F)cc5)c4=O)nc3)c2cc1OC` [Compound of formula (I), N-(5-((6,7-dimethoxyquinolin-4-yl)oxy)pyridin-2-yl)-5-(4-fluorophenyl)-1-isopropyl-4-oxo-1,4-dihydropyridazine-3-carboxamide]: in data set [1], the “24-hour solubility in buffer solutions with different pH values pH6.5” value worked out at 0.0002 mg/mL and the “24-hour solubility in buffer solutions with different pH values pH5.0” value came out at 0.004 mg/mL.

In data set [2] (0-96 h, n = 3), `COc1cc2nccc(Oc3ccc(NC(=O)c4nn(C(C)C)cc(-c5ccc(F)cc5)c4=O)nc3)c2cc1OC` [Crystal form II, N-(5-((6,7-dimethoxyquinolin-4-yl)oxy)pyridin-2-yl)-5-(4-fluorophenyl)-1-isopropyl-4-oxo-1,4-dihydropyridazine-3-carboxamide] gave an AUClast of 3054.395 µg·h/mL. In data set [2] (n = 3), the Cmax was determined as 58.933 µg/mL. The molecule also returned a λ_z in data set [2] (n = 3, suspension in 0.5% HPMC) of 0.026 h⁻¹. Further, the Tmax in data set [2] (median, n = 3) turned out to be 6.00 h. Also, the tz1/2 in data set [2] (terminal half-life, n = 3) came to 27.0 h. For the same molecule, the Appearance result in data set [3] (0 days), in data set [3] (setting [4]), in data set [3] (setting [5]), in data set [3] (setting [6]), in data set [3] (setting [7]) and in data set [3] (setting [8]) was “White or off-white solid” each time. In addition, the Appearance entry in data set [3] (setting [9]), in data set [3] (setting [10]), in data set [3] (setting [11]) and in data set [3] (setting [12]) was “White or off-white solid” in each case. For the same molecule, the Purity in data set [3] (0 days) worked out at 99.74%; in data set [3] (setting [4]) it was 99.74%; in data set [3] (setting [5]), 99.73%; in data set [3] (setting [6]) it was 99.72%; in data set [3] (setting [7]), 99.74%; in data set [3] (setting [8]), 99.74%. The Purity worked out at 99.74% in data set [3] (setting [9]), 99.75% in data set [3] (setting [10]), 99.74% in data set [3] (setting [11]) and 99.75% in data set [3] (setting [12]). Besides, the “changes in the appearance and purity” value in data set [3] is reported as “no significant changes”. In data set [1], the “24-hour solubility in buffer solutions with different pH values pH6.5” value worked out at 0.023 mg/mL. In addition, the “24-hour solubility in buffer solutions with different pH values pH5.0” value in data set [1] is given as 0.31 mg/mL. Moreover, the “solubility compared with the compound of formula (I)” value in data set [1] is “significantly improved”.

On to `COc1cc2nccc(Oc3ccc(NC(=O)c4nn(C(C)C)cc(-c5ccc(F)cc5)c4=O)nc3)c2cc1OC` [Crystal form III, N-(5-((6,7-dimethoxyquinolin-4-yl)oxy)pyridin-2-yl)-5-(4-fluorophenyl)-1-isopropyl-4-oxo-1,4-dihydropyridazine-3-carboxamide], for which the Appearance entry in data set [3] (0 days), in data set [3] (setting [4]), in data set [3] (setting [5]), in data set [3] (setting [6]), in data set [3] (setting [7]) and in data set [3] (setting [8]) was “White or off-white solid” throughout. For the same molecule, the Appearance result in data set [3] (setting [9]), in data set [3] (setting [10]), in data set [3] (setting [11]) and in data set [3] (setting [12]) was “White or off-white solid” in each case. Moreover, the Purity in data set [3] (0 days) amounted to 99.90%; in data set [3] (setting [4]) it was 99.90%; in data set [3] (setting [5]) it was 99.90%; in data set [3] (setting [6]), 99.89%; in data set [3] (setting [7]), 99.90%; in data set [3] (setting [8]), 99.90%. The Purity in data set [3] (setting [9]) worked out at 99.90%; in data set [3] (setting [10]), 99.90%; in data set [3] (setting [11]), 99.91%; in data set [3] (setting [12]), 99.91%. Further, the “changes in the appearance and purity” value in data set [3] is reported as “no significant changes”. Also, the “24-hour solubility in buffer solutions with different pH values pH6.5” value in data set [1] came to 0.023 mg/mL. Besides, the “24-hour solubility in buffer solutions with different pH values pH5.0” value in data set [1] worked out at 0.025 mg/mL. In addition, in data set [1], the “solubility compared with the compound of formula (I)” value is given as “significantly improved”.

`COc1cc2nccc(Oc3ccc(NC(=O)c4nn(C(C)C)cc(-c5ccc(F)cc5)c4=O)nc3)c2cc1OC` [Crystal form IV, N-(5-((6,7-dimethoxyquinolin-4-yl)oxy)pyridin-2-yl)-5-(4-fluorophenyl)-1-isopropyl-4-oxo-1,4-dihydropyridazine-3-carboxamide]: the Appearance result in data set [3] (0 days), in data set [3] (setting [4]), in data set [3] (setting [5]), in data set [3] (setting [6]), in data set [3] (setting [7]) and in data set [3] (setting [8]) was “White or off-white solid” in each case. Besides, the Appearance entry in data set [3] (setting [9]), in data set [3] (setting [10]), in data set [3] (setting [11]) and in data set [3] (setting [12]) was “White or off-white solid” each time. The Purity is on record as 99.91% in data set [3] (0 days); 99.91% in data set [3] (setting [4]); 99.91% in data set [3] (setting [5]); 99.87% in data set [3] (setting [6]); 99.92% in data set [3] (setting [7]); 99.92% in data set [3] (setting [8]). Also, the Purity in data set [3] (setting [9]) came to 99.92%; in data set [3] (setting [10]), 99.91%; in data set [3] (setting [11]) it was 99.91%; in data set [3] (setting [12]), 99.88%. Also, the “changes in the appearance and purity” value in data set [3] is recorded as “no significant changes”. In data set [1], the “24-hour solubility in buffer solutions with different pH values pH6.5” value worked out at 0.023 mg/mL. Also, the “24-hour solubility in buffer solutions with different pH values pH5.0” value in data set [1] came out at 0.31 mg/mL. Besides, the “solubility compared with the compound of formula (I)” value in data set [1] was “significantly improved”.
